The target in assay [1] is T1, ICCG (unidentified prokaryotic organism, UniProt G9BY57, Y127G/D238C/F243I/S283C).
T1 construct: quadruple variant of LCC; only D238C/S283C given, the other two changes (F243I, Y127G) known from Tournier et al. 2020; expression construct not described; PDB 6THT given as the ICCG structure used for modelling
T1 sequence (G9BY57 36-293 Y127G/D238C/F243I/S283C): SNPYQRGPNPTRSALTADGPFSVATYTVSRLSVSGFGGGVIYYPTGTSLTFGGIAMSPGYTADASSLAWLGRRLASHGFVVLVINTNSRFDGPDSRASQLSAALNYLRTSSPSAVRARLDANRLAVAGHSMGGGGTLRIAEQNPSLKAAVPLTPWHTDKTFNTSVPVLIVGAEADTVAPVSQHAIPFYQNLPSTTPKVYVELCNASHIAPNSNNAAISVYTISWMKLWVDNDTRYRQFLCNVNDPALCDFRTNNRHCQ
The assay can be described thus: inhibition of mp-PET hydrolysis, HPLC of products. Conditions: 1 mM MHET, mp-PET substrate, 40°C, pH 8.5, 10 mM CaCl2, 72 h; product inhibition. Format: biochemical.

Assay [2] concerns the target T2, IsPETase (Pseudideonella sakaiensis, UniProt A0A0K8P6T7).
T2 construct: gene ISF6_4831; purified enzyme; expression construct not described
T2 sequence (A0A0K8P6T7 28-290): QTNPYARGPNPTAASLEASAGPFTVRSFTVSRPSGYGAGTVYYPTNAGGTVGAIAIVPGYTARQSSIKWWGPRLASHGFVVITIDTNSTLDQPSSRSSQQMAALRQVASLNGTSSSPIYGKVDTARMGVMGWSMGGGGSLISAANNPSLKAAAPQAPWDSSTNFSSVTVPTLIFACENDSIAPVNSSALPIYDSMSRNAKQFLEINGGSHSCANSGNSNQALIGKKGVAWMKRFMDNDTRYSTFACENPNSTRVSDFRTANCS
Description: inhibition of mp-PET hydrolysis, HPLC of products. It is filed as biochemical. The note with it: 1 mM MHET, mp-PET substrate, 40°C, pH 8.5, 10 mM CaCl2, 72 h; product inhibition.

Consider `O=C(O)c1ccc(C(=O)OCCO)cc1` [MHET], for which the “inhibition at 1 mM” value in assay [1] was “in the presence of MHET, significant inhibitory effects were detected toward IsPETase and ICCG”; in assay [2], “in the presence of MHET, significant inhibitory effects were detected toward IsPETase and ICCG”.

The values are drawn from PMC9086285, “Catalytic Features and Thermal Adaptation Mechanisms of a Deep Sea Bacterial Cutinase-Type Poly(Ethylene Terephthalate) Hydrolase” (Frontiers in Bioengineering and Biotechnology, 2022).
